In publication PMC5469750, “Antibacterial and detoxifying activity of NZ17074 analogues with multi-layers of selective antimicrobial actions against Escherichia coli and Salmonella enteritidis” (Scientific Reports, 2017):
In brackets after ≈: the same amount, converted by molar mass. Where a SMILES comes first, the peptide text is derived from it. Bridges are numbered along the chain shown (N, C = ends). Where no end group is shown, it is not given here.

Experiments:
[1] = system: E. coli CVCC1515; assay type: cell-based, Escherichia coli; settings: CVCC1515
Protocol: (§1) The antimicrobial activity of peptides was determined by the microbroth dilution method. The bacterial strains were incubated in Mueller-Hinton (MH) medium at 37 °C overnight until the mid-log phase (OD600 nm reading of 0.5). Bacteria were diluted to 1 × 10^5 CFU/ml and added into 96-well plates, followed by the addition of serial dilutions of peptides (from 0.0625 to 128 μg/ml). The plates were incubated at 37 °C for 18–24 h. The MIC value was determined as the lowest peptide concentration at which no bacterial growth was observed. All tests were conducted in triplicate.

[2] = system: S. enteritidis CVCC3377; assay type: cell-based, Salmonella enteritidis; settings: CVCC3377
Protocol: as §1

[3] = system: Bacillus subtilis ATCC6633; assay type: cell-based; settings: ATCC6633
Protocol: as §1

[4] = system: Enterococcus faecium CMCC1.2136; assay type: cell-based; settings: CMCC1.2136
Protocol: as §1

[5] = system: Escherichia coli CVCC195; assay type: cell-based; settings: CVCC195
Protocol: as §1

[6] = system: Listeria ivanovii ATCC19119; assay type: cell-based; settings: ATCC19119
Protocol: as §1

[7] = system: Pseudomonas aeruginosa CICC10419; assay type: cell-based; settings: CICC10419
Protocol: as §1

[8] = system: S. pullorum CVCC1789; assay type: cell-based; settings: CVCC1789
Protocol: as §1

[9] = system: S. pullorum CVCC1802; assay type: cell-based; settings: CVCC1802
Protocol: as §1

[10] = system: S. suis CVCC606; assay type: cell-based
Protocol: as §1

[11] = system: Salmonella typhimurium ATCC14028; assay type: cell-based; settings: ATCC14028
Protocol: as §1

[12] = system: Staphylococcus aureus ATCC43300; assay type: cell-based; settings: ATCC43300
Protocol: as §1

[13] = system: P. aeruginosa CICC21630; assay type: cell-based, Pseudomonas aeruginosa; settings: CICC21630
Protocol: as §1

[14] = system: S. aureus ATCC25923; assay type: cell-based, Staphylococcus aureus; settings: ATCC25923
Protocol: as §1

[15] = system: Candida albicans CGMCC2.2411; assay type: cell-based; settings: CGMCC2.2411
[16] = system: E. coli CVCC195; assay type: cell-based, Escherichia coli; settings: CVCC195, 3 h, 1
Protocol: (§2) Radioactive precursors were added into cells (1 μCi/ml) and shaken at 37 °C for 20 min. Ice-cold 25% trichloroacetic acid (TCA) was added and placed on ice for 30 min. The cells were centrifuged and washed twice with ice-cold 25% TCA. After drying, the samples were mixed with scintillation fluid and counted for their radioactivity using a MicroBeta 1450 scintillation counter (Perkin Elmer)[62].

[17] = system: S. enteritidis CVCC3377; assay type: cell-based, Salmonella enteritidis; settings: CVCC3377, 3 h, 1
Protocol: as §2

[18] = system: S. choleraesuis CVCC503; assay type: cell-based; settings: CVCC503
Protocol: as §1

[19] = LPS binding, BODIPY-TR-cadaverine (BC) displacement; settings: negative control; 50 mM Tris buffer pH 7.4
Protocol: Equal volumes of 40 μg/ml LPS and 10 μM BC in 50 mM Tris buffer (pH 7.4) were mixed, added into 96-well plates and incubated in the dark for 4 h at room temperature. […] Fluorescence was then measured using a microplate reader (excitation/emission, 580/620 nm). The occupancy rate was calculated by the following equation: BC displacement rate (%) = (1 − (F0 − F)/(F0 − Fmax)) × 100, wherein F0 is the fluorescence intensity of the solution of BC alone; Fmax is the fluorescence intensity in the presence of LPS at the saturation concentration, and F is the intensity of LPS:BC mixtures at varying displacer concentrations.

[20] = system: E. coli CICC21530 (serotype O157:H7); assay type: cell-based, Escherichia coli; settings: microbroth dilution, MH medium, 1 × 10^5 CFU/ml, 37 °C, 18–24 h; representative of three independent experiments
Protocol: as §1

Compound	MIC [1] [µg/mL]	MIC [2] [µg/mL]	MIC [3] [µg/mL]	MIC [4] [µg/mL]	MIC [5] [µg/mL]	MIC [6] [µg/mL]	MIC [7] [µg/mL]	MIC [8] [µg/mL]	MIC [9] [µg/mL]	MIC [10] [µg/mL]	MIC [11] [µg/mL]	MIC [12] [µg/mL]	MIC [13] [µg/mL]	MIC [14] [µg/mL]	MIC [15] [µg/mL]	MIC [18] [µg/mL]	also measured
CC(C)[C@@H]1NC(=O)[C@H](C)NC(=O)[C@H](CC(N)=O)NC(=O)[C@H](CCCNC(=N)N)NC(=O)[C@H](Cc2ccc(O)cc2)NC(=O)[C@H](C(C)C)NC(=O)[C@@H]2CSSC[C@H](NC(=O)[C@H](C(C)C)NC(=O)[C@H](CCCNC(=N)N)NC1=O)C(=O)N[C@@H](Cc1c[nH]cn1)C(=O)N[C@@H](CCCNC(=N)N)C(=O)N[C@@H](CCCNC(=N)N)C(=O)N[C@H](C(=O)N[C@@H](CC(N)=O)C(=O)O)CSSC[C@H](NC(=O)[C@H](Cc1ccccc1)NC(=O)[C@H](C)N)C(=O)N[C@@H](Cc1c[nH]c3ccccc13)C(=O)N[C@@H](CC(N)=O)C(=O)N[C@@H](C(C)C)C(=O)N2 [N2] (H-AFCWNVCVYRNAVRVCHRRCN-OH; disulfide 3-20, 7-16)	0.5 (≈ 0.195 µM)	0.125 (≈ 0.0487 µM)	0.5 (≈ 0.195 µM)	4 (≈ 1.56 µM)	0.25 (≈ 0.0974 µM)	4 (≈ 1.56 µM)	2 (≈ 0.779 µM)	0.5 (≈ 0.195 µM)	0.25 (≈ 0.0974 µM)	16 (≈ 6.24 µM)	1 (≈ 0.39 µM)	16 (≈ 6.24 µM)	2 (≈ 0.779 µM)	0.25 (≈ 0.0974 µM)	32 (≈ 12.5 µM)		inhibition of 3H-thymidine incorporation (DNA synthesis) [16]: 28.6%; inhibition of 3H-uridine incorporation (RNA synthesis) [16]: 18.7%; inhibition of DNA synthesis (3H-thymidine) [17]: 35.5%; inhibition of protein synthesis (3H-leucine) [17]: 17.0%
CC(C)[C@@H]1NC(=O)CNC(=O)[C@H](CC(N)=O)NC(=O)[C@H](CCCNC(=N)N)NC(=O)[C@H](Cc2ccc(O)cc2)NC(=O)[C@H](C(C)C)NC(=O)[C@@H]2CSSC[C@H](NC(=O)[C@H](C(C)C)NC(=O)[C@H](CCCNC(=N)N)NC1=O)C(=O)N[C@@H](Cc1c[nH]cn1)C(=O)N[C@@H](CCCNC(=N)N)C(=O)N[C@@H](CCCNC(=N)N)C(=O)N[C@H](C(=O)N[C@@H](CC(N)=O)C(=O)O)CSSC[C@H](NC(=O)[C@H](Cc1ccccc1)NC(=O)CN)C(=O)N[C@@H](CCCCN)C(=O)N[C@@H](C)C(=O)N[C@@H](C(C)C)C(=O)N2 [N3] (H-GFCKAVCVYRNGVRVCHRRCN-OH; disulfide 3-20, 7-16)	1 (≈ 0.41 µM)	0.5 (≈ 0.205 µM)	2 (≈ 0.821 µM)	8 (≈ 3.28 µM)	1 (≈ 0.41 µM)	8 (≈ 3.28 µM)	>16	2 (≈ 0.821 µM)	1 (≈ 0.41 µM)	16 (≈ 6.57 µM)	4 (≈ 1.64 µM)	>16	16 (≈ 6.57 µM)	0.25 (≈ 0.103 µM)	>16		
CC(C)[C@@H]1NC(=O)CNC(=O)[C@H](CC(N)=O)NC(=O)[C@H](CCCNC(=N)N)NC(=O)[C@H](Cc2ccc(O)cc2)NC(=O)[C@H](C(C)C)NC(=O)[C@@H]2CSSC[C@H](NC(=O)[C@H](C(C)C)NC(=O)[C@H](CCCNC(=N)N)NC1=O)C(=O)N[C@@H](Cc1c[nH]cn1)C(=O)N[C@@H](CCCNC(=N)N)C(=O)N[C@@H](CCCNC(=N)N)C(=O)N[C@H](C(=O)N[C@@H](CC(N)=O)C(=O)O)CSSC[C@H](NC(=O)[C@H](Cc1ccccc1)NC(=O)CNC(=O)[C@@H](N)Cc1c[nH]c3ccccc13)C(=O)N[C@@H](Cc1c[nH]c3ccccc13)C(=O)N[C@@H](CC(N)=O)C(=O)N[C@@H](C(C)C)C(=O)N2 [N4] (H-WGFCWNVCVYRNGVRVCHRRCN-OH; disulfide 4-21, 8-17)	1 (≈ 0.367 µM)	0.25 (≈ 0.0918 µM)	1 (≈ 0.367 µM)		1 (≈ 0.367 µM)			1 (≈ 0.367 µM)	2 (≈ 0.734 µM)		2 (≈ 0.734 µM)	8 (≈ 2.94 µM)	4 (≈ 1.47 µM)	1 (≈ 0.367 µM)			
CC(C)[C@@H]1NC(=O)CNC(=O)[C@H](CC(N)=O)NC(=O)[C@H](CCCNC(=N)N)NC(=O)[C@H](Cc2ccc(O)cc2)NC(=O)[C@H](C(C)C)NC(=O)[C@@H](NC(=O)[C@@H](NC(=O)[C@H](CC(N)=O)NC(=O)[C@H](Cc2c[nH]c3ccccc23)NC(=O)[C@H](C)NC(=O)[C@H](Cc2ccccc2)NC(=O)CN)C(C)C)CSSC[C@@H](C(=O)N[C@@H](Cc2c[nH]cn2)C(=O)N[C@@H](CCCNC(=N)N)C(=O)N[C@@H](CCCNC(=N)N)C(=O)N[C@@H](C)C(=O)N[C@@H](CC(N)=O)C(=O)O)NC(=O)[C@H](C(C)C)NC(=O)[C@H](CCCNC(=N)N)NC1=O [N6] (H-GFAWNVCVYRNGVRVCHRRAN-OH; disulfide 7-16)	1 (≈ 0.404 µM)	0.25 (≈ 0.101 µM)	0.5 (≈ 0.202 µM)	4 (≈ 1.62 µM)	0.5 (≈ 0.202 µM)		8 (≈ 3.23 µM)	0.5 (≈ 0.202 µM)	0.5 (≈ 0.202 µM)	16 (≈ 6.46 µM)	2 (≈ 0.808 µM)	16 (≈ 6.46 µM)	4 (≈ 1.62 µM)	0.25 (≈ 0.101 µM)	64 (≈ 25.8 µM)	2 (≈ 0.808 µM)	inhibition of 3H-thymidine incorporation (DNA synthesis) [16]: 43.8%; inhibition of DNA synthesis (3H-thymidine) [17]: 61.8%; inhibition of RNA biosynthesis (3H-uridine) [17]: 5.7%
CC(C)[C@@H]1NC(=O)CNC(=O)[C@H](CC(N)=O)NC(=O)[C@H](CCCNC(=N)N)NC(=O)[C@H](Cc2ccc(O)cc2)NC(=O)[C@H](C(C)C)NC(=O)[C@H](C)NC(=O)[C@H](C(C)C)NC(=O)[C@H](CC(N)=O)NC(=O)[C@H](Cc2c[nH]c3ccccc23)NC(=O)[C@@H](NC(=O)[C@H](Cc2ccccc2)NC(=O)CN)CSSC[C@@H](C(=O)N[C@@H](CC(N)=O)C(=O)O)NC(=O)[C@H](CCCNC(=N)N)NC(=O)[C@H](CCCNC(=N)N)NC(=O)[C@H](Cc2c[nH]cn2)NC(=O)[C@H](C)NC(=O)[C@H](C(C)C)NC(=O)[C@H](CCCNC(=N)N)NC1=O [N7] (H-GFCWNVAVYRNGVRVAHRRCN-OH; disulfide 3-20)	2 (≈ 0.808 µM)	0.5 (≈ 0.202 µM)	2 (≈ 0.808 µM)	2 (≈ 0.808 µM)	2 (≈ 0.808 µM)	2 (≈ 0.808 µM)	>64	4 (≈ 1.62 µM)	4 (≈ 1.62 µM)	8 (≈ 3.23 µM)	8 (≈ 3.23 µM)	>64	>64	0.5 (≈ 0.202 µM)	>16	16 (≈ 6.46 µM)	
CC1(C)S[C@@H]2[C@H](NC(=O)[C@H](N)c3ccccc3)C(=O)N2[C@H]1C(=O)O [ampicillin]																	BC displacement / binding to LPS [19]: did not displace BC
GFAWNVAVYRNGVRVAHRRAN [N8]	16	1	4	16	32		>128	>128	32	>128	>64	>64	>128	2		>64	MIC [20]: 16 µg/mL
GFWNVVYRNGVRVHRRN [N5]	128	4	64	64	64	128	>128	>128	>128	>128	128	>128	>128	2	>128	>128	MIC [20]: 64 µg/mL
